According to patent US20140235444A1, “SYNERGISTIC SUPRESSION OF GRASS SEEDHEAD PRODUCTION FROM APPLICATIONS OF AMINOCYCLOPYRACHLOR AND METSULFURON” (Dow AgroSciences LLC, priority 2013, published 2014):

Test system: X fescue in a Kentucky blue grass mix
Experiment: Field trial, prevention or suppression of grass seedhead production, postemergence foliar application
Type: in vivo
Settings: 12 days after application, scale 0-100% vs untreated control
Procedure: Field trials were conducted with applications made to established pastures having X fescue in a Kentucky blue grass mix. The target plants were treated with postemergence foliar applications when they were approximately 6-10 inches tall. All treatments were applied using a randomized complete block trial design, with four replications per treatment.
Treatments consisted of aminocyclopyrachlor in acid form and metsulfuron-methyl, each in water and applied alone or in combination. Spray solutions were prepared using an appropriate amount of dilution to form a 1 liter (L) aqueous spray solution with active ingredients in single and two-way combinations. Formulated compounds were applied to the plant material with a backpack sprayer equipped with 8003 flat fan nozzles calibrated to deliver 20 gallons per acre (gal/acre) or 187 liters per hectare (L/ha) at a spray height of 15 inches (38.1 centimeters (cm)) above the grass.
The treated plots and control plots were rated blind at various intervals after application. […]
Colby's equation was used to determine the seedhead-suppressant effects expected from the mixtures, as described above. The results were measured at 12 days after the first application of the compositions. […]

| Molecule | Mean % seedhead suppression (Aminocyclopyrachlor alone, 70 g ae/ha) [%] | Mean % seedhead suppression (Metsulfuron-Methyl alone, 13 g ae/ha) [%] |
| --- | --- | --- |
| Nc1nc(C2CC2)nc(C(=O)O)c1Cl [Aminocyclopyrachlor, 6-amino-5-chloro-2-cyclopropylpyrimidine-4-carboxylic acid] | 5.0 | – |
| Metsulfuron-Methyl | – | 80.0 |
